Laboratory results reported in US11981658B2, “Substituted aminopyridine compounds as EGFR inhibitors” (YUHAN CORPORATION, priority 2021, dated 2024).
Where a name gives a salt, the structure may show the parent alone. Read-outs that look alike come from different tables or passages of the source.

Assays:
EGFR Del19/T790M/C797S = EGFR Del19/T790M/C797S (Homo sapiens, UniProt P00533, C797S/DEL746-750/T790M); experiment: Biochemical EGFR kinase inhibition assay (Lance Ultra TR-FRET), triple mutant del19/T790M/C797S
Summary of the method: (§1)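 Step 1: compound in kinase buffer, 0.003–10 μM. Step 2: kinase reaction 1 h at room temperature. Step 4: TR-FRET read at 615/665 nm; IC50 calculated.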

EGFR wildtype (WT) = EGFR wildtype (WT) (Homo sapiens, UniProt P00533); experiment: Biochemical EGFR kinase inhibition assay (Lance Ultra TR-FRET), wildtype
Summary of the method: as §1

EGFR L858R/T790M/C797S = EGFR L858R/T790M/C797S (Homo sapiens, UniProt P00533, C797S/L858R/T790M); experiment: Biochemical EGFR kinase inhibition assay (Lance Ultra TR-FRET), triple mutant L858R/T790M/C797S
Summary of the method: as §1

EGFR L858R/C797S = EGFR L858R/C797S (Homo sapiens, UniProt P00533, C797S/L858R); experiment: Biochemical EGFR kinase inhibition assay (Lance Ultra TR-FRET), double mutant L858R/C797S
Summary of the method: as §1

EGFR Del19/C797S = EGFR Del19/C797S (Homo sapiens, UniProt P00533, C797S/DEL746-750); experiment: Biochemical EGFR kinase inhibition assay (Lance Ultra TR-FRET), double mutant del19/C797S
Summary of the method: as §1

[1] = IC50 Del19/T790M/C797S (nM), 100 μM ATP
[2] = IC50 L858R/T790M/C797S (nM), 100 μM ATP
[3] = IC50 L858R/C797S (nM), 100 μM ATP
[4] = IC50 Del19/C797S (nM), 100 μM ATP
[5] = Km ATP, read-out: IC50 Del19/T790M/C797S (nM), Km ATP
[6] = Km ATP, read-out: IC50 WT (nM), Km ATP
[7] = Km ATP, read-out: IC50 L858R/T790M/C797S (nM), Km ATP
[8] = Km ATP, read-out: IC50 L858R/C797S (nM), Km ATP
[9] = Km ATP, read-out: IC50 Del19/C797S (nM), Km ATP
[10] = ATP at Km, read-out: IC50 Del19/T790M/C797S (nM), Km ATP
[11] = ATP at Km, read-out: IC50 WT (nM), Km ATP
[12] = ATP at Km, read-out: IC50 L858R/C797S (nM), Km ATP
[13] = ATP at Km, read-out: IC50 Del19/C797S (nM), Km ATP
[14] = ATP at Km, read-out: IC50 L858R/T790M/C797S (nM), Km ATP
[15] = Km ATP, read-out: IC50 Del19/T790M/C797S (nM) Km ATP
[16] = Km ATP, read-out: IC50 WT (nM) Km ATP
[17] = Km ATP, read-out: IC50 L858R/T790M/C797S (nM) Km ATP
[18] = Km ATP, read-out: IC50 L858R/C797S (nM) Km ATP
[19] = Km ATP, read-out: IC50 Del19/C797S (nM) Km ATP

EGFR L858R/T790M/C797S, sequence (P00533 25-1210 T790M/C797S/L858R): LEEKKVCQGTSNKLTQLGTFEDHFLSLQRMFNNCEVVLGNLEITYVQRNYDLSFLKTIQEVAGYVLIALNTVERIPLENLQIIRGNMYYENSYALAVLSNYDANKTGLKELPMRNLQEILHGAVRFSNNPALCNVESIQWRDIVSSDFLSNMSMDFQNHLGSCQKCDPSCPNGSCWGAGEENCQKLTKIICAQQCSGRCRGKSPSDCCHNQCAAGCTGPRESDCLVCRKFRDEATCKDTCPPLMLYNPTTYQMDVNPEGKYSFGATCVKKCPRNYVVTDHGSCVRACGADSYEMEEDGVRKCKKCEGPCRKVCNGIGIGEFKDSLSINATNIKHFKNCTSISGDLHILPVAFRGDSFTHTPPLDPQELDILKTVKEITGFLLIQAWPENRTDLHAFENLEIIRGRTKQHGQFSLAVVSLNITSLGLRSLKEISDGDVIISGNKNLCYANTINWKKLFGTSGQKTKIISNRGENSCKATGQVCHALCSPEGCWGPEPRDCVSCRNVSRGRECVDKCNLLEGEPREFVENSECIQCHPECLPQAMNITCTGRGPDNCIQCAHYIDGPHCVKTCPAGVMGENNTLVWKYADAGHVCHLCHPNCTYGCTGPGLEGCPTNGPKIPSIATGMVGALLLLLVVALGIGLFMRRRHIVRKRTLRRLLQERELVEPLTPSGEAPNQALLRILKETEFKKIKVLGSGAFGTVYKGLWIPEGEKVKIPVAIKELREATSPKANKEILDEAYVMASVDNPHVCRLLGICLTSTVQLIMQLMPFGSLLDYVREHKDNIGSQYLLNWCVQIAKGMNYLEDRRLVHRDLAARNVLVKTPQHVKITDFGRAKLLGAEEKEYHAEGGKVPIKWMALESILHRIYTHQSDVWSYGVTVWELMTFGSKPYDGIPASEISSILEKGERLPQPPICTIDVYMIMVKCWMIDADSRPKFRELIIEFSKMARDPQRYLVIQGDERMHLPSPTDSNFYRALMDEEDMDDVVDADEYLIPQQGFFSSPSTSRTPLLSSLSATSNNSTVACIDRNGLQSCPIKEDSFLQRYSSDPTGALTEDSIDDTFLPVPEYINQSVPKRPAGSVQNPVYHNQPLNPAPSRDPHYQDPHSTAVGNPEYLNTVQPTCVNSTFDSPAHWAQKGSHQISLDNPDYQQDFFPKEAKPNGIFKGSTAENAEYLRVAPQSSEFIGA
EGFR wildtype (WT), sequence (P00533 25-1210): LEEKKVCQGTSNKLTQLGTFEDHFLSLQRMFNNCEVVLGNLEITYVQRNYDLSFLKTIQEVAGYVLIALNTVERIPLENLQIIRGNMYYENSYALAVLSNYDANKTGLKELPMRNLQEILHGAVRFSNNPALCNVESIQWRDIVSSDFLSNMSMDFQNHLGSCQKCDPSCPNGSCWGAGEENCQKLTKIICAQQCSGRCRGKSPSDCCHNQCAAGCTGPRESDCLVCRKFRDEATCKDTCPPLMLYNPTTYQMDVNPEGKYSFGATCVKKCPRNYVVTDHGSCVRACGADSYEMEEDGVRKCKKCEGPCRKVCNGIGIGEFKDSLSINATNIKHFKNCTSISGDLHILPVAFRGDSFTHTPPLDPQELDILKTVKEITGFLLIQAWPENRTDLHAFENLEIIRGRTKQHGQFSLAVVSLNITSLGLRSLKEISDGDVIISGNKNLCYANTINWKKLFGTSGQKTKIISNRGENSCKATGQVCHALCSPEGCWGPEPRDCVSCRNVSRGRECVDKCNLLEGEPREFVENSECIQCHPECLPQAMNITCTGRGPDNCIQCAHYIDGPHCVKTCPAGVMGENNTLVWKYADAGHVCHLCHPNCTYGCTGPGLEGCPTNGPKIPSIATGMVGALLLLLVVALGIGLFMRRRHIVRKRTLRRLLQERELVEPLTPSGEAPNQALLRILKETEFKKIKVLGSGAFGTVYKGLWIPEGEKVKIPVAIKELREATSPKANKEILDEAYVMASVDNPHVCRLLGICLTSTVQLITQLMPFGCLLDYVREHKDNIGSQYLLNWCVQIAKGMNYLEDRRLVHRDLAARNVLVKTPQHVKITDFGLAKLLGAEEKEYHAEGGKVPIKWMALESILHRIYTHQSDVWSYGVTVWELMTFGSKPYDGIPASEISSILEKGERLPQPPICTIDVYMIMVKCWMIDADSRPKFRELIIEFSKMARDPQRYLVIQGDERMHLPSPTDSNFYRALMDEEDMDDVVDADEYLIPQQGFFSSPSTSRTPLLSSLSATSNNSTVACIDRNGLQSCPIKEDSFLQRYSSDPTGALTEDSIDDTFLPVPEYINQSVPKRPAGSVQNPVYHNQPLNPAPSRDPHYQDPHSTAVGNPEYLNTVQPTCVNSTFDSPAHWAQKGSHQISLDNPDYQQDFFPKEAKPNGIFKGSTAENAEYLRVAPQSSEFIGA
EGFR Del19/C797S, sequence (P00533 with tags, fused parts or gaps DEL746-750/C797S): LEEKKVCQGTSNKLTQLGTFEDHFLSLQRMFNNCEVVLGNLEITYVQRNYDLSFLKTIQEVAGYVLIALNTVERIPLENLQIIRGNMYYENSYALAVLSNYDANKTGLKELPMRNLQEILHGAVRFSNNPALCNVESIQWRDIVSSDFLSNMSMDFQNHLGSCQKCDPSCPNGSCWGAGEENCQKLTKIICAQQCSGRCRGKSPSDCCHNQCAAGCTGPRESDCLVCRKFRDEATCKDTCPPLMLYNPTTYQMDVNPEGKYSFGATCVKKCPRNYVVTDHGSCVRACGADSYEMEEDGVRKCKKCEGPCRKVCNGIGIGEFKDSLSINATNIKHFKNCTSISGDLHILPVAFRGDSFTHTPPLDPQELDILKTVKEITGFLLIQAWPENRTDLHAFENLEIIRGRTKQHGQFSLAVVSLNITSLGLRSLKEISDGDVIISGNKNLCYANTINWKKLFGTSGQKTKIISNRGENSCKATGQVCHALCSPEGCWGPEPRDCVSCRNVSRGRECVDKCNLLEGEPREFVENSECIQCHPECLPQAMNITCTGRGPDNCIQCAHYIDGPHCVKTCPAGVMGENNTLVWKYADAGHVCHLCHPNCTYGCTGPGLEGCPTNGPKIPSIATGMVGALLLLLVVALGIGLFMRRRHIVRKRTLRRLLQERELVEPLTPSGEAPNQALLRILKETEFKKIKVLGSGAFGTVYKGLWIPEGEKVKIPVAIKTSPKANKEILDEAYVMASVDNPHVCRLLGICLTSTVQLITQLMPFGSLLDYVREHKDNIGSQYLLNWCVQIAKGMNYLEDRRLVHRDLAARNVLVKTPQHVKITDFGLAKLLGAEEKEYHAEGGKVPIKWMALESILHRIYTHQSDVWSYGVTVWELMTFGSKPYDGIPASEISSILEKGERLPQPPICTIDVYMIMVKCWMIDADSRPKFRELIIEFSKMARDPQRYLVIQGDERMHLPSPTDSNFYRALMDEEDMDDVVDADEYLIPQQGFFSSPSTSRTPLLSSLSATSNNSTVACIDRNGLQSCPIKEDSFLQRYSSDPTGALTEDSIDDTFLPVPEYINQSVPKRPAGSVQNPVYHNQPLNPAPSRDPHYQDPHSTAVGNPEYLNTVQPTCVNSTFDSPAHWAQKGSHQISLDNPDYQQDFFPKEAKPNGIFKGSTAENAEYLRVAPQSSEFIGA
EGFR L858R/C797S, sequence (P00533 25-1210 C797S/L858R): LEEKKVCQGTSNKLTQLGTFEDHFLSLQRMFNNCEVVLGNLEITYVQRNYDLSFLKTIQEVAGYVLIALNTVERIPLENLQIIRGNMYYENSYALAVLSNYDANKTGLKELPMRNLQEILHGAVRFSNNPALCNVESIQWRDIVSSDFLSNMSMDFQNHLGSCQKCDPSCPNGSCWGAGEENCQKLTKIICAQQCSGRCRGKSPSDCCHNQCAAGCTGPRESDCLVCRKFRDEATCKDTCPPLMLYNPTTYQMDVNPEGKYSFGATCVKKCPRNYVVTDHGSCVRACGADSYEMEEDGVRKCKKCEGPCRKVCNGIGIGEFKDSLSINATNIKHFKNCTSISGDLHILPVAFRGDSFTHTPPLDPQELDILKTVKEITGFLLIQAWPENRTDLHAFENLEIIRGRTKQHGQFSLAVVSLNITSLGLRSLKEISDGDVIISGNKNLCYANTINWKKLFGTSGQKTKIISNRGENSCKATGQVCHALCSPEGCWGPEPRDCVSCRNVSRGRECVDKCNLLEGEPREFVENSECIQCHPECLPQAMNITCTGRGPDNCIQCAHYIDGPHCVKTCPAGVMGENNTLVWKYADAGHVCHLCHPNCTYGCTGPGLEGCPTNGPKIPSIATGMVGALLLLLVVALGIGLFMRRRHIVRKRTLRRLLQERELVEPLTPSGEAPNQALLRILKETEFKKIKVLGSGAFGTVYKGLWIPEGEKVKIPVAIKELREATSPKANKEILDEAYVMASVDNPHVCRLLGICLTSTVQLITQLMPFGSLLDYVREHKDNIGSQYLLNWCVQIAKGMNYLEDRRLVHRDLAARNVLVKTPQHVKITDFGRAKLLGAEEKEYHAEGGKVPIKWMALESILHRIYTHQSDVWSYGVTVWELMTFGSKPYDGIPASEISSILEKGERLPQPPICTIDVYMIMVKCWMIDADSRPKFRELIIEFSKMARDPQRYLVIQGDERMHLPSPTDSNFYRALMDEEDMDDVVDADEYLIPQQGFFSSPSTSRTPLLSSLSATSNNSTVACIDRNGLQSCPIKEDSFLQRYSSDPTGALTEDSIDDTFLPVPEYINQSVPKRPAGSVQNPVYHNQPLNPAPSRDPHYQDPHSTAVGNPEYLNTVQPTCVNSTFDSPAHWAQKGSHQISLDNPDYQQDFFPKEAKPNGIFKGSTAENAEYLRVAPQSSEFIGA

| IC50 (EGFR Del19/T790M/C797S; [1]) | IC50 (EGFR wildtype (WT); IC50 WT (nM), 100 μM ATP) | IC50 (EGFR L858R/T790M/C797S; [2]) | IC50 (EGFR L858R/C797S; [3]) | IC50 (EGFR Del19/C797S; [4]) | IC50 (EGFR Del19/T790M/C797S; [5]) | IC50 (EGFR wildtype (WT); [6]) | IC50 (EGFR L858R/T790M/C797S; [7]) | IC50 (EGFR L858R/C797S; [8]) | IC50 (EGFR Del19/C797S; [9]) | IC50 (EGFR Del19/T790M/C797S; [10]) | IC50 (EGFR wildtype (WT); [11]) | IC50 (EGFR L858R/C797S; [12]) | IC50 (EGFR Del19/C797S; [13]) | IC50 (EGFR L858R/T790M/C797S; [14]) | IC50 (EGFR Del19/T790M/C797S; [15]) | IC50 (EGFR wildtype (WT); [16]) | IC50 (EGFR L858R/T790M/C797S; [17]) | IC50 (EGFR L858R/C797S; [18]) | IC50 (EGFR Del19/C797S; [19]) | SMILES |
| --- | --- | --- | --- | --- | --- | --- | --- | --- | --- | --- | --- | --- | --- | --- | --- | --- | --- | --- | --- | --- |
| 16.2 nM | > 10000 nM | 35.1 nM | 334 nM | 245 nM | – | – | – | – | – | – | – | – | – | – | – | – | – | – | – | CN(C)CC1(O)CCN(c2cc(Nc3ccnc(-c4cnn(S(=O)(=O)C5CC5)c4)n3)ncc2C#Cc2cnn(C(F)(F)F)c2)CC1 [Example 317, 1-(2-((2-(1-(Cyclopropylsulfonyl)-1H-pyrazol-4-yl)pyrimidin-4-yl)amino)-5-((1-(trifluoromethyl)-1H-pyrazol-4-yl)ethynyl)pyridin-4-yl)-4-((dimethylamino)methyl)piperidin-4-ol] |
| 17.8 nM | > 10000 nM | 13 nM | > 10000 nM | 255 nM | 6.8 nM | 240 nM | 3.5 nM | 245 nM | 133 nM | – | – | – | – | – | – | – | – | – | – | O=S(=O)(C1CC1)n1cc(-c2nccc(Nc3cc(N4C[C@H]5C[C@@]5(CO)C4)c(C#Cc4cnn(C(F)(F)F)c4)cn3)n2)cn1 [Example 333, ((1 S,5S)-3-(2-((2-(1-(Cyclopropylsulfonyl)-1H-pyrazol-4-yl)pyrimidin-4-yl)amino)-5-((1-(trifluoromethyl)-1H-pyrazol-4-yl)ethynyl)pyridin-4-yl)-3-azabicyclo[3.1.0]hexan-1-yl)methanol] |
| 4.4 nM | 7270 nM | 1.7 nM | 15.9 nM | 6.8 nM | – | – | – | – | – | 1.1 nM | 12.6 nM | 1.7 nM | 2.8 nM | – | – | – | – | – | – | CC(C)(O)CC#Cc1cnc(Nc2ccnc(-c3cnn(S(=O)(=O)C4CC4)c3)n2)cc1N1CCC(C)(CO)CC1 [Example 284, 5-(6-((2-(1-(Cyclopropylsulfonyl)-1H-pyrazol-4-yl)pyrimidin-4-yl)amino)-4-(4-(hydroxymethyl)-4-methylpiperidin-1-yl)pyridin-3-yl)-2-methylpent-4-yn-2-ol] |
| 0.1 nM | 4180 nM | 0.2 nM | 38.1 nM | 3.2 nM | – | – | – | – | – | 0.1 nM | 4.1 nM | 1 nM | 1.2 nM | 0.1 nM | – | – | – | – | – | CN1CCC2(CCN(c3cc(Nc4ccnc(-c5cnn(S(=O)(=O)C6CC6)c5)n4)ncc3C#Cc3cnn(C)c3)CC2)C1 [Example 297, 2-(1-(Cyclopropylsulfonyl)-1H-pyrazol-4-yl)-N-(5-((1-methyl-1H-pyrazol-4-yl)ethynyl)-4-(2-methyl-2,8-diazaspiro[4.5]decan-8-yl)pyridin-2-yl)pyrimidin-4-amine formate] |
| 0.7 nM | > 10000 nM | 1.4 nM | 37.5 nM | 8.8 nM | – | – | – | – | – | – | – | – | – | – | – | – | – | – | – | Cn1cnc(C#Cc2cnc(Nc3ccnc(-c4cnn(S(=O)(=O)C5CC5)c4)n3)cc2N2CCC(O)CC2)c1 [Example 213, 1-(2-((2-(1-(Cyclopropylsulfonyl)-1H-pyrazol-4-yl)pyrimidin-4-yl)amino)-5-((1-methyl-1H-imidazol-4-yl)ethynyl)pyridin-4-yl)piperidin-4-ol] |
| 0.5 nM | 5980 nM | 0.6 nM | 50.8 nM | 3.6 nM | – | – | – | – | – | 0.4 nM | 25.1 nM | 2.5 nM | 2.1 nM | 0.2 nM | – | – | – | – | – | O=S(=O)(C1CC1)n1cc(-c2nccc(Nc3cc(NC4CCC(O)CC4)c(C#CC4CCOC4)cn3)n2)cn1 (centres unmarked) [Example 198, (1s,4s)-4-((2-((2-(1-(Cyclopropylsulfonyl)-1H-pyrazol-4-yl)pyrimidin-4-yl)amino)-5-((tetrahydrofuran-3-yl)ethynyl)pyridin-4-yl)amino)cyclohexan-1-ol] |
| 2.3 nM | > 10000 nM | 6.2 nM | 40.5 nM | 26.3 nM | – | – | – | – | – | – | – | – | – | – | – | – | – | – | – | Cn1ncc(C#Cc2cnc(Nc3ccnc(-c4cnn(S(=O)(=O)C5CC5)c4)n3)cc2N2CCC(CCO)CC2)c1C1CC1 [Example 87, 2-(1-(5-((5-Cyclopropyl-1-methyl-1H-pyrazol-4-yl)ethynyl)-2-((2-(1-(cyclopropylsulfonyl)-1H-pyrazol-4-yl)pyrimidin-4-yl)amino)pyridin-4-yl)piperidin-4-yl)ethan-1-ol] |
| 0.3 nM | 820 nM | 0.2 nM | 9.5 nM | 0.5 nM | 0.3 nM | 5.5 nM | 0.1 nM | 1.6 nM | 0.6 nM | – | – | – | – | – | – | – | – | – | – | CC1(CO)CCN(c2cc(Nc3ccnc(-c4cnn(S(=O)(=O)C5CC5)c4)n3)ncc2C#CC2COC2)CC1 [Example 352, (1-(2-((2-(1-(Cyclopropylsulfonyl)-1H-pyrazol-4-yl)pyrimidin-4-yl)amino)-5-(oxetan-3-ylethynyl)pyridin-4-yl)-4-methylpiperidin-4-yl)methanol] |
| 14.9 nM | > 10000 nM | 29.3 nM | 971 nM | 44.3 nM | 26.7 nM | 294 nM | 24.7 nM | 17.8 nM | 16.6 nM | – | – | – | – | – | – | – | – | – | – | CS(=O)(=O)N1CCC(C#Cc2cnc(Nc3ccnc(-c4cnn(S(=O)(=O)C5CC5)c4)n3)cc2NCC2CCC(O)CC2)C1 (centres unmarked) [Example 398, (1 r,4r)-4-(((2-((2-(1-(Cyclopropylsulfonyl)-1H-pyrazol-4-yl)pyrimidin-4-yl)amino)-5-((1-(methylsulfonyl)pyrrolidin-3-yl)ethynyl)pyridin-4-yl)amino)methyl)cyclohexan-1-ol] |
| 1.2 nM | > 10000 nM | 7.8 nM | 154 nM | 29.8 nM | – | – | – | – | – | – | – | – | – | – | 1.1 nM | 126 nM | 1.6 nM | 8.4 nM | 25.5 nM | CC(=O)N1CCC(n2cc(C#Cc3cnc(Nc4ccnc(-c5cnn(S(=O)(=O)C6CC6)c5)n4)cc3N3CCC(=O)CC3)cn2)CC1 [Example 108, 1-(5-((1-(1-Acetylpiperidin-4-yl)-1H-pyrazol-4-yl)ethynyl)-2-((2-(1-(cyclopropylsulfonyl)-1H-pyrazol-4-yl)pyrimidin-4-yl)amino)pyridin-4-yl)piperidin-4-one] |
| 0.7 nM | > 10000 nM | 3 nM | 58.1 nM | 14 nM | – | – | – | – | – | – | – | – | – | – | 0.7 nM | 41.7 nM | 0.8 nM | 4.2 nM | 10.4 nM | O=S(=O)(C1CC1)n1cc(-c2nccc(Nc3cc(N4CCCC(O)C4)c(C#Cc4cnn(C5CCOCC5)c4)cn3)n2)cn1 (centres unmarked) [Example 99, 1-(2-((2-(1-(Cyclopropylsulfonyl)-1H-pyrazol-4-yl)pyrimidin-4-yl)amino)-5-((1-(tetrahydro-2H-pyran-4-yl)-1H-pyrazol-4-yl)ethynyl)pyridin-4-yl)piperidin-3-ol] |
| 5.3 nM | 2910 nM | 9.1 nM | 15.9 nM | 2.2 nM | – | – | – | – | – | – | – | – | – | – | 4 nM | 38.2 nM | 2.3 nM | 7.2 nM | 4.3 nM | CC1(CO)CCN(c2cc(Nc3ccnc(-c4cnn(S(=O)(=O)C5CC5)c4)n3)ncc2C#Cc2cnn(CC3CC3)c2)CC1 [Example 48, (1-(5-((1-(Cyclopropylmethyl)-1H-pyrazol-4-yl)ethynyl)-2-((2-(1-(cyclopropylsulfonyl)-1H-pyrazol-4-yl)pyrimidin-4-yl)amino)pyridin-4-yl)-4-methylpiperidin-4-yl)methanol] |
| 0.4 nM | 197 nM | 0.2 nM | 1.4 nM | 0.7 nM | 0.4 nM | 0.8 nM | 0.1 nM | 0.7 nM | 0.6 nM | – | – | – | – | – | – | – | – | – | – | CN1CCN(Cc2ccc(C#Cc3cnc(Nc4ccnc(-c5cnn(S(=O)(=O)C6CC6)c5)n4)cc3N3CCC(C)(O)CC3)cc2)CC1 [Example 368, 1-(2-((2-(1-(Cyclopropylsulfonyl)-1H-pyrazol-4-yl)pyrimidin-4-yl)amino)-5-((4-((4-methylpiperazin-1-yl)methyl)phenyl)ethynyl)pyridin-4-yl)-4-methylpiperidin-4-ol] |
| 1.3 nM | > 10000 nM | 2.9 nM | 59.3 nM | 8.6 nM | – | – | – | – | – | – | – | – | – | – | – | – | – | – | – | O=S(=O)(C1CC1)n1cc(-c2nccc(Nc3cc(N[C@@H]4CCC[C@H](O)C4)c(C#Cc4cnn(CCF)c4)cn3)n2)cn1 [Example 46, (1S,3R)-3-((2-((2-(1-(Cyclopropylsulfonyl)-1H-pyrazol-4-yl)pyrimidin-4-yl)amino)-5-((1-(2-fluoroethyl)-1H-pyrazol-4-yl)ethynyl)pyridin-4-yl)amino)cyclohexan-1-ol] |
